The subject of one experiment is PLC. In words: Cerep enzyme inhibition screen: PLC. The experiment is classed as biochemical. Particulars: mean of two determinations. The text has this:
Compound of Example 25 falling in both Formula (I) and (Ia) was selected to be tested for off-target effects on a set of enzymes that include proteases (aspartic, cysteine, and serine), cyclooxygenases as well as lipoxygenases and group IV phospholipase (sPLA2) (Table 3).

The target in experiment [1] is AC (Mus musculus (Mouse), UniProt Q9WV54). Description: AC activity in RAW264.7 murine cell line. The experiment is classed as cell-based. Particulars: Raw264.7 cells; 0.1-20 μM; 3 hours. The procedure: Specifically it is reported the concentration response of compound of Example 25 or vehicle (0.1% DMSO in DMEM) on AC activity and ceramide levels in RAW264.7 murine cell line. (A) Intact cells were treated with compound of Example 25 (0.1-20 μM) or vehicle and AC activity was measured 3 hours later in cell lysates. (B-E) Intact cells were exposed to compound of Example 25 (0.1-20 μM) for 3 hours and sphingosine/sphinganine (B), dihydroceramides (C), medium chain ceramides (D), long chain ceramides (E) were quantified. Results are expressed as mean±s.e.m. (n=3). *p<0.05, **p<0.01, ***p<0.001 vs vehicle, two-way ANOVA followed by Dunnet.
(§1) hAC protein preparation (10 μg) was preincubated with inhibitors (final DMSO concentration 1%) in assay buffer (100 mM sodium phosphate, 0.1% Nonidet P-40, 150 mM NaCl, 3 mM DTT, 100 mM sodium citrate, pH 4.5) for 30 min at 37° C. Reactions were started by the addition of 50 μM N-lauroyl ceramide (Nu-Chek Prep, Elysian, Minn.) and carried on for 30 min at 37° C. […] The organic phases were collected, dried under nitrogen and analyzed by UPLC/MS (Acquity, Waters). […]
(§2) The [M−H]^− ion was monitored in the selected-ion monitoring mode (m/z values: lauric acid 199, 11-lauroleic acid 197.35). […] Inhibition of AC activity was calculated as reduction of lauric acid in the samples compared to vehicle controls. […]

The target in experiment [2] is T1, AC (Homo sapiens (Human), UniProt Q13510). Description: AC activity in A375 human melanoma cells. It counts as cell-based. Particulars: 25 μM, evident at 30 minutes, lasted up to 3 hours. The procedure: (§3) Specifically, FIG. 1 evidences the effects of compound of Example 7 or vehicle (0.1% DMSO in DMEM) on AC activity and ceramide levels in A375 (left panel) or MeWo (right panel) human melanoma cell lines. (A-B) Intact cells were treated with compound of Example 7 (25 μM) or vehicle and AC activity was measured 30 minutes or 3 hours later in cell lysates. (B) Intact cells were exposed to compound of Example 7 (25 μM) for 2 hours or 24 hours and medium chain ceramides (C-D), long chain ceramides (E-F) and dihydroceramides (G-H) were quantified. Results are expressed as mean±s.e.m. (n=3). *p<0.05, **p<0.01, ***p<0.001 vs vehicle, two-way ANOVA followed by Dunnet.
as §1, §2

Experiment [3] has as its target T1, AC. In words: AC activity in MeWo human melanoma cells. The experiment is classed as cell-based. Particulars: 25 μM, evident at 30 minutes, lasted up to 3 hours. Here is the method: as §3, §1, §2

SMILES strings stand for the structures.

T1 sequence (Q13510 22-142): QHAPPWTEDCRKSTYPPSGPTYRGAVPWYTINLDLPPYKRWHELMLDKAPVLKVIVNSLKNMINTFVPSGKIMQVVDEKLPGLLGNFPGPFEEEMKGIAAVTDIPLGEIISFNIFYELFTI
T1 sequence (Q13510 143-395): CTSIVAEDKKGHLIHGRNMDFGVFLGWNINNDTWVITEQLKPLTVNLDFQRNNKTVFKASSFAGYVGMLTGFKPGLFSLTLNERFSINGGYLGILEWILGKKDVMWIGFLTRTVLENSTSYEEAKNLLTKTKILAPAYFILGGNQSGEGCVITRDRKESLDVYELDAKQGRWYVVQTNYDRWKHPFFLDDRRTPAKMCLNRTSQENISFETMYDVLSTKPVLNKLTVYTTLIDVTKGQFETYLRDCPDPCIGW
Sequence of AC (Mus musculus (Mouse), UniProt Q9WV54) (Q9WV54 19-141): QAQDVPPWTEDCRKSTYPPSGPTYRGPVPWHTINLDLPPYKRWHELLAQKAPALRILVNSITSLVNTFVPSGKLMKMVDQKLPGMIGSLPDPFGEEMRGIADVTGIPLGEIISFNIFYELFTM
Sequence of AC (Mus musculus (Mouse), UniProt Q9WV54) (Q9WV54 142-394): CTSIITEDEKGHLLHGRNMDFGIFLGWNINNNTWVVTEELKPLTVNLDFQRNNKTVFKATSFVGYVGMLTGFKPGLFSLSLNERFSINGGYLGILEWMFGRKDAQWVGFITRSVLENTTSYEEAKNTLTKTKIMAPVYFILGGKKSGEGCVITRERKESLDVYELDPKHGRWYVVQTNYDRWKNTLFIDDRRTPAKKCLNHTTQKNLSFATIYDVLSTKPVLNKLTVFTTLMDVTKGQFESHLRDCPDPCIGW

Take `O=C(NCCCCc1ccccc1)n1c(=O)oc2cc(-c3ccc(F)cc3)ccc21` [Example 25, 6-(4-Fluorophenyl)-2-oxo-N-(4-phenylbutyl)-1,3-benzoxazole-3-carboxamide]: the “Inhibitory activity (% Inh. at 10 μM), mean” value in the experiment on PLC is −19.7%. Moreover, at AC [1], the AC activity entry is given as “concentration dependent reduction in AC activity”.
Regarding `O=C(NCCCCc1ccccc1)n1c(=O)oc2cc(Br)ccc21` [Example 7, 6-Bromo-2-oxo-N-(4-phenylbutyl)-1,3-benzoxazole-3-carboxamide], the AC activity result on AC [2] and at AC [3] was “reduction in AC activity” in each case.

Source of the values: patent publication US10226452B2, “Benzoxazolone derivatives as acid ceramidase inhibitors, and their use as medicaments” (FONDAZIONE ISTITUTO ITALIANO DI TECNOLOGIA, priority 2014, dated 2019).
